Where a SMILES comes first, the peptide text is derived from it.
Assays:
[1] = tested on: human myeloid leukemia cell line HL60; assay: Proliferation of HL60 cells: cell number after 7 days culture; assay type: cell-based; conditions: for No. Cells: HL60, after 7 days; for Percent relative to Controls: HL60 cell number after 7 days
Excerpt: The number of cells after 7 days culture growth were counted in the presence or absence of the different molecules. Results are shown for the free G5 12-8B peptide alone (artificially synthesized), phage displaying G5 12-8B, the free A2 11-24 peptide, phage displaying the A2 11-24 peptide, a combination of the free G5 and A2 peptides, a combination of the free pure with phage displaying the peptides, and several concentrations of peptide.
(§1) Such inhibition is not the result of the killing of the cells. The data are graphed in the Figures.
The control number of cells per milliliter (2.6) is an average of results from dual controls (2.6×10^6).
(§2) DMSO, dimethylsulfoxide, is a chemical that induces HL60 cellular differentiation.

[2] = tested on: human myeloid leukemia cell line HL60; assay: Viability of HL60 cells, trypan blue; assay type: cell-based; conditions: for Day 5 Viability: 5 day; for Day 7 Viability: 7 day; for Day 9 Viability: 9 day
Protocol: (§3) Studies were conducted of the effects of the free G5 12-8B (artificially synthesized), phage displaying G5 12-8B, the free A2 11-24 peptide, phage displaying the A2 11-24 peptide, a combination of the free G5 and A2 peptides, a combination of pure peptides plus phage displaying the peptides, and several concentrations of peptide.

[3] = tested on: human myeloid leukemia cell line HL60; assay: Differentiation of HL60 cells; assay type: cell-based
Excerpt: FIG. 1 illustrates the effects of several peptides on the differentiation of the human myeloid leukemia cell line HL60.
as §1, §2
The level of differentiation of the HL60 cells after 5 or 7 days growth in the presence or absence of the various phage and peptides combinations described above are shown in FIG. 1. The high level of differentiation that has been achieved is notable from the graph in FIG. 1. The levels of differentiation in the presence of peptide exceed that produced by the presence of phage alone.

[4] = tested on: human myeloid leukemia cell line HL60; assay: Differentiation of HL60 cells; assay type: cell-based; remark: listed apart in the source
[5] = Viability of HL60 cells, trypan blue; assay type: cell-based; conditions: human
Protocol: as §3

CML cells = assay: ELISA binding of phage displaying peptides to fixed cells: CML cells; design: species or system human; conditions: in words
Protocol: (§4) Preliminary experiments were performed to identify specific peptides by using cells from patients diagnosed with CLL, CML, and AML. The screening was performed by incubating the cells with the phage-peptides from the library. This incubation allows interaction between the peptide and the cell. The binding step was followed by several washes to eliminate free phage. Phage bound on the cell surface was eluted.
(§5) After the last round of binding with one cell type, the eluted phage was plated on an agar plate with the appropriate selection antibiotics. Each individual colony, corresponding to one individual peptide sequence, was amplified in a 96-well plate. After purification, these peptides were tested for their ability to bind to the cells in a microtiter plate by ELISA.
(§6) Each peptide was dispensed in a 96-well plate, containing cells previously fixed. Each colony was tested in a triplicate assay with the appropriate controls. After incubation of cells with an individual clone, the wells were washed to eliminate free phage. The bound phages were detected by using a monoclonal anti-M13 antibody/horseradish peroxidase (HRP) conjugate. After addition of the HRP substrate, the intensity of the coloration was measured by spectrophotometry. The light absorbance values (optical density values, O.D. values) are proportional to the number of phage bound to the cells.
(§7) The binding to various cell types were examined to evaluate the cellular specificity of the phage clones. For example, the clones from phage eluted from CLL patient cells were assayed for their ability to bind cells from an AML patient. Cells from normal donors (non-leukemic) were also evaluated to ascertain leukemia cell specificity.
(§8) Peripheral blood and bone marrow samples were collected from patients after informed consent. The samples were collected in tubes containing sodium citrate. Mononuclear cells were isolated by Ficoll-Hypaque density gradient separation and collection of the cells at a density of 1.077 g/mL.
(§9) The wells of a 96-well plate were pre-treated with 100 μL of poly-L-lysine (0.01 mg/mL in phosphate-buffered saline, 120 mM NaCl, 2.7 mM KCl, 10 mM phosphate buffer, “PBS”) for 2-16 hours at room temperature. After draining the poly-L-lysine from the wells, the excess poly-L-lysine was removed from the wells by flicking. The cells were washed with PBS, then suspended in PBS and diluted to a final concentration of […]. The cell suspension (200 μL; 250,000 cells) were added to each well needed for the assay.
(§10) The plates were centrifuged at 500 g for about 5 minutes in a microplate carrying centrifuge when available. The cells were fixed to the wells through the addition of glutaraldehyde (100 μL of 0.5%) and incubating at room temperature for about an hour. The glutaraldehyde was removed and the cell-coated wells washed once with PBS. Alternatively, the cells were permitted to settle to the well bottoms for about 4 hours at 37° C., and the glutaraldehyde fixative was added after removing the PBS.
(§11) A glycine solution (200 μl of 0.1 M glycine in PBS) containing bovine serum albumin (BSA; 1%) was added to the wells and permitted to incubate for 30 minutes to block excess glutaraldehyde. The glycine was removed, and the cell-coated wells washed once with PBS. A sodium pyrophosphate solution (200 μL of 0.3 mg/mL NaPPi) was added to the wells and incubated for an hour at room temperature to neutralize lysine charges. The pyrophosphate solution was removed and the wells washed once with PBS. Multiwell microtiter plates with cell-coated wells were stored at 4° C. with fresh PBS solution in the coated wells.
(§12) The cells to be studied for binding were suspended in PBS and adsorbed onto to a poly-L-lysine pretreated 96-well plate and kept at 4° C. The PBS was removed from the wells and an H2O2 solution in PBS (6% H2O2 in 200 μL/well) was added. […]

AML cells = assay: ELISA binding of phage displaying peptides to fixed cells: AML cells; design: species or system human; conditions: in words
Protocol: as §4, §5, §6, §7, §8, §9, §10, §11, §12

CD34+ cells = assay: ELISA binding of phage displaying peptides to fixed cells: CD34+ cells; design: species or system human; conditions: in words
Protocol: as §4, §5
as §6, with “Each colony was tested in a triplicate assay with the appropriate controls. After incubation of cells with an individual clone, the wells were washed to eliminate free phage.” left out
(§13) The binding to various cell types were examined to evaluate the cellular specificity of the phage clones. […] Cells from normal donors (non-leukemic) were also evaluated to ascertain leukemia cell specificity. […]

CLL cells = assay: ELISA binding of phage displaying peptides to fixed cells: CLL cells; design: species or system human; conditions: in words
Protocol: as §4, §5, §6, §7, §8, §9, §10, §11, §12

AML bone marrow cells = assay: Methylcellulose culture of AML bone marrow cells with peptides: proliferation (colonies) and differentiation (morphology); assay type: cell-based, human; conditions: patient numbers
Protocol: The effect of various peptides were analyzed for their biological activity on cells from a patient with acute myelogenous leukemia. The AML cells were cultured into a semi-solid medium of methylcellulose in order to determine the cloning efficiency and the differentiation of the cells. The various peptides were introduced into the semi-solid cell culture at a concentration of 10^−4 M (0.1 mM) peptide. After 14 days continuous incubation of the cell cultures, the morphology of the cells were analyzed. The data are shown in FIG. 7 for the cultures and show the percentage of immature cells in the culture (solid black), the percentage of small myeloblasts (solid white), the percentage of young cells (dark gray), and the relative percentage of monocytes to […] (light gray). The data regarding the biological response of AML bone marrow cells in the presence of the various peptides is shown in the table below.

[6] = tested on: human bone marrow AML cells; assay: Effect of phage-peptides on differentiation, cell number and viability of freshly obtained AML patient bone marrow cells cultured seven days; assay type: cell-based; conditions: for Number of Cells / Percent Differentiation: phage-peptides; for Percent differentiated in Specimen 1 / Percent differentiated in Specimen 2: peptides in bacteriophage, AML cells cultured seven days in vitro
Excerpt: The effect of various phage-peptides were studied on the differentiation of cells from two AML patients.

normal bone marrow cells = assay: ELISA binding of phage displaying peptides to fixed cells: normal bone marrow; design: species or system human; conditions: in words
Protocol: as §4, §5
as §6, with “Each colony was tested in a triplicate assay with the appropriate controls. After incubation of cells with an individual clone, the wells were washed to eliminate free phage.” left out
as §13

cord blood cells = assay: ELISA binding of phage displaying peptides to fixed cells: cord blood cells; design: species or system human; conditions: in words
Protocol: as §4, §5
as §6, with “Each colony was tested in a triplicate assay with the appropriate controls. After incubation of cells with an individual clone, the wells were washed to eliminate free phage.” left out
as §13

CC[C@H](C)[C@H](NC(=O)[C@@H](N)CS)C(=O)N[C@@H](CCC(=O)O)C(=O)N[C@@H](CCC(=O)O)C(=O)N[C@H](C(=O)N[C@@H](C)C(=O)N[C@@H](CCCNC(=N)N)C(=O)N[C@@H](CCCCN)C(=O)NCC(=O)N[C@@H](CS)C(=O)O)[C@@H](C)O [A2 11-24 peptide] (H-CIEETARKGC-OH; N-terminus and C-terminus assumed)
No. Cells ([1]; free peptide at 10^−4 M): 2.0 10^6 cell/mL
Percent relative to Controls ([1]; free peptide at 10^−4 M): 77%
Day 5 Viability [2]: 100%
Day 7 Viability [2]: 96%
Day 9 Viability [2]: 87%
Day 5 % Diff. ([3]; free peptide at 10^−4 M): 18%
Day 5 % Diff., figure in parentheses ([3]; free peptide at 10^−4 M): 150%
Day 7 % Diff. ([3]; free peptide at 10^−4 M): 30%
Day 7 % Diff., figure in parentheses ([3]; free peptide at 10^−4 M): 188%
Day 9 % Diff. ([4]; free peptide at 10^−4 M): 25%

C[S+](C)[O-] [DMSO, dimethylsulfoxide, reference compound]
No. Cells ([1]; concentration not given): 0.9 10^6 cell/mL
Percent relative to Controls ([1]; concentration not given): 30%
viability at 5 days [5]: 98%
viability at 7 days [5]: 97%
viability at 9 days [5]: 82%
Day 5 % Diff. ([3]; concentration not given): off scale
Day 7 % Diff. ([3]; concentration not given): off scale
Day 9 % Diff. ([4]; concentration not given): off scale

NCCCC[C@H](NC(=O)CNC(=O)[C@H](CO)NC(=O)[C@H](Cc1c[nH]c2ccccc12)NC(=O)[C@H](CCC(N)=O)NC(=O)[C@H](CCC(N)=O)NC(=O)[C@H](Cc1ccccc1)NC(=O)[C@H](CCC(=O)O)NC(=O)[C@@H](N)CS)C(=O)N[C@@H](CS)C(=O)O [G5 12-8B peptide] (H-CEFQQWSGKC-OH; N-terminus and C-terminus assumed)
No. Cells ([1]; free peptide at 10^−4 M): 1.2 10^6 cell/mL
Percent relative to Controls ([1]; free peptide at 10^−4 M): 48%
Day 5 Viability [2]: 98%
Day 7 Viability [2]: 96%
Day 9 Viability [2]: 90%
Day 5 % Diff. ([3]; free peptide at 10^−4 M): 22%
Day 5 % Diff., figure in parentheses ([3]; free peptide at 10^−4 M): 183%
Day 7 % Diff. ([3]; free peptide at 10^−4 M): 31%
Day 7 % Diff., figure in parentheses ([3]; free peptide at 10^−4 M): 194%
Day 9 % Diff. ([4]; free peptide at 10^−4 M): 22%

CIEETARKGC [A2 11-24]
binding of phage displaying the peptide to CML cells (CML cells): bind
binding of phage displaying the peptide to AML cells (AML cells): bind
binding of phage displaying the peptide to CD34+ cells (CD34+ cells): bind
binding of phage displaying the peptide to CLL cells (CLL cells): not
Activation of Differentiation (AML bone marrow cells): 3

EFQQWSGK [G5 12-8B phage]
Number of Cells ([6]; Patient 1): 1.11 106
Percent Differentiation ([6]; Patient 1): 27.9%
Number of Cells ([6]; Patient 2, listed as GS-12-8B): 0.31 106
Percent Differentiation ([6]; Patient 2, listed as GS-12-8B): 61%
Percent differentiated in Specimen 1 [6]: 28%
Percent differentiated in Specimen 2 [6]: 61%
No. Cells ([1]; phage 75): 3.8 10^6 cell/mL
Percent relative to Controls ([1]; phage 75): 140%
Day 5 % Diff. ([3]; phage 75): 17%
Day 5 % Diff., figure in parentheses ([3]; phage 75): 142%
Day 7 % Diff. ([3]; phage 75): 46%
Day 7 % Diff., figure in parentheses ([3]; phage 75): 288%
Day 9 % Diff. ([4]; phage 75): 46%

IEETARKG [A2 11-24 phage]
Number of Cells ([6]; Patient 1): 0.75 106
Percent Differentiation ([6]; Patient 1): 79.2%
Number of Cells ([6]; Patient 2): 0.33 106
Percent Differentiation ([6]; Patient 2): 49.5%
Percent differentiated in Specimen 1 [6]: 79%
Percent differentiated in Specimen 2 [6]: 50%
No. Cells ([1]; phage 75): 1.6 10^6 cell/mL
Percent relative to Controls ([1]; phage 75): 62%
Day 5 % Diff. ([3]; phage 75): 18%
Day 5 % Diff., figure in parentheses ([3]; phage 75): 150%
Day 7 % Diff. ([3]; phage 75): 52%
Day 7 % Diff., figure in parentheses ([3]; phage 75): 325%
Day 9 % Diff. ([4]; phage 75): 64%

KRGIHPES [B3 9-1-01 no Cys]
binding of phage displaying the peptide to AML cells (AML cells): not
binding of phage displaying the peptide to normal bone marrow (normal bone marrow cells): bind

VSEDIYDA [E11 12-8B]
binding of phage displaying the peptide to CML cells (CML cells): bind
binding of phage displaying the peptide to AML cells (AML cells): bind
binding of phage displaying the peptide to cord blood cells (cord blood cells): bind

Source: patent US20030134342A1, “Binding-specific peptides, binding-specific carrier molecules, and uses thereof” (priority 2001, published 2003)
